Reference: ChEMBL document CHEMBL4420076, “Amylin and calcitonin receptor agonist” (2017)
Numbered stars: 1 amine (or outer) side, 2 acyl side, 3 side chain; on linkers, the order of the positions; unused ones are H or OH. Peptide text beside a SMILES is read from it. * marks the point of attachment. C20 diacid = O=C(O)CCCCCCCCCCCCCCCCCCC(=O)*; C18 diacid = O=C(O)CCCCCCCCCCCCCCCCC(=O)*; γGlu = O=C(O)[C@H](CCC(=O)[*:2])N[*:1]

Columns and labels:
Rattus norvegicus [1] = experiment: Reduction in food intake in Sprague-Dawley rat at 3 nmol/kg measured 0 to 24 hrs post dose relative to control; type: functional; design: scale not given: the % may be the effect or the level left
Rattus norvegicus [2] = experiment: Reduction in food intake in Sprague-Dawley rat at 3 nmol/kg measured 24 to 48 hrs post dose relative to control; type: functional; design: scale not given: the % may be the effect or the level left
[3] = biological target: T1, Amylin receptor AMY3; CALCR/RAMP3 (Homo sapiens, UniProt O60896+P30988); experiment: Agonist activity at human amylin receptor expressed in BHK570 cells co-expressing RAMP3 assessed as increase in intracellular cAMP concentration incubated for 3 hrs in absence of albumin by CRE luciferase reporter gene assay; type: functional, cell-based
T1 sequence (P30988 whole entry): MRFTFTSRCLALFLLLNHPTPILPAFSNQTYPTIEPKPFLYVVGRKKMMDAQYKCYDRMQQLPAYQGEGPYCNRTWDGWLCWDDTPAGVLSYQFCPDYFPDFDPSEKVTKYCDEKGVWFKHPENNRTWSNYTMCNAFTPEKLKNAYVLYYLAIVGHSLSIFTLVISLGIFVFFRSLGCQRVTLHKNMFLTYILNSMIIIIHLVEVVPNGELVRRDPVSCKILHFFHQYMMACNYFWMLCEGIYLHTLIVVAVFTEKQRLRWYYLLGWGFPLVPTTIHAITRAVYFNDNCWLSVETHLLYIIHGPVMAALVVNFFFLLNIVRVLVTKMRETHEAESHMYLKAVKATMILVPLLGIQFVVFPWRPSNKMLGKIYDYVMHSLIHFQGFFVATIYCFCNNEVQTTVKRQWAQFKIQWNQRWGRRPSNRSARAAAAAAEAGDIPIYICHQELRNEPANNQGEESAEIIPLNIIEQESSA
T1 sequence (O60896 whole entry): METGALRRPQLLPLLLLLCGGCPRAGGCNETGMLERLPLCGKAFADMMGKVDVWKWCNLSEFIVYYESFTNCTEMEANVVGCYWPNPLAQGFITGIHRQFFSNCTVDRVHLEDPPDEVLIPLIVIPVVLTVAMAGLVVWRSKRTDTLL

Calcitonin receptor [4] = biological target: T2, Calcitonin receptor (Homo sapiens, UniProt P30988); experiment: Agonist activity at human calcitonin receptor expressed in BHK570 cells assessed as increase in intracellular cAMP concentration incubated for 3 hrs in absence of albumin by CRE luciferase reporter gene assay; type: functional, cell-based
T2 sequence (P30988 whole entry): T1 sequence (P30988 whole entry)

Calcitonin receptor [5] = biological target: T2, Calcitonin receptor; experiment: Agonist activity at human calcitonin receptor expressed in BHK570 cells assessed as increase in intracellular cAMP concentration incubated for 3 hrs in presence of 10% FBS by CRE luciferase reporter gene assay; type: functional, cell-based
[6] = Solubility in 100 mM glycylglycine buffer at pH 3.0 incubated for 18 hrs by UPLC analysis; type: physicochemical
[7] = Solubility in 100 mM glycylglycine buffer at pH 4.0 incubated for 18 hrs by UPLC analysis; type: physicochemical
[8] = Solubility in 100 mM bistrispropane buffer at pH 6.0 incubated for 18 hrs by UPLC analysis; type: physicochemical
[9] = Solubility in 100 mM glycylglycine buffer at pH 5.0 incubated for 18 hrs by UPLC analysis; type: physicochemical
[10] = Solubility in 100 mM bistrispropane buffer at pH 6.5 incubated for 18 hrs by UPLC analysis; type: physicochemical
[11] = Solubility in 100 mM bistrispropane buffer at pH 7.0 incubated for 18 hrs by UPLC analysis; type: physicochemical
[12] = Solubility in 100 mM bistrispropane buffer at pH 7.5 incubated for 18 hrs by UPLC analysis; type: physicochemical
[13] = Solubility in 100 mM bistrispropane buffer at pH 8.0 incubated for 18 hrs by UPLC analysis; type: physicochemical

Row | SMILES | Activity (Rattus norvegicus [1]) [%] | Activity (Rattus norvegicus [2]) [%] | EC50 [3] [pM] | EC50 (Calcitonin receptor [4]) [pM] | EC50 (Calcitonin receptor [5]) [pM] | solubility at 18 h [6] [µM] | solubility at 18 h [7] [µM] | solubility at 18 h [8] [µM] | solubility at 18 h [9] [µM] | solubility at 18 h [10] [µM] | solubility at 18 h [11] [µM] | solubility at 18 h [12] [µM] | solubility at 18 h [13] [µM]
1 | CC(C)C[C@H](NC(=O)[C@H](C)NC(=O)[C@H](C)NC(=O)[C@@H](NC(=O)[C@H](CO)NC(=O)[C@H](CC(C)C)NC(=O)[C@H](CCC(=O)O)NC(=O)[C@H](CO)NC(=O)[C@H](C)NC(=O)CC[C@H](NC(=O)CCCCCCCCCCCCCCCCC(=O)O)C(=O)O)[C@@H](C)O)C(=O)NCC(=O)N[C@@H](CCCNC(=N)N)C(=O)N[C@@H](CC(C)C)C(=O)N[C@@H](CO)C(=O)N[C@@H](C)C(=O)N[C@@H](CCC(=O)O)C(=O)N[C@@H](CC(C)C)C(=O)N[C@@H](Cc1c[nH]cn1)C(=O)N[C@@H](CCC(=O)O)C(=O)N[C@@H](CC(C)C)C(=O)N[C@@H](C)C(=O)N[C@H](C(=O)N[C@@H](Cc1ccc(O)cc1)C(=O)N1CCC[C@H]1C(=O)N[C@@H](CCCNC(=N)N)C(=O)N[C@H](C(=O)N[C@@H](CCC(=O)O)C(=O)N[C@H](C(=O)NCC(=O)N[C@@H](CO)C(=O)NCC(=O)N[C@@H](CO)C(=O)N1CCC[C@H]1C(N)=O)[C@@H](C)O)[C@@H](C)O)[C@@H](C)O ({C18 diacid-γGlu}-ASELSTAALGRLSAELHELATYPRTETGSGSP-NH2) | 74 | 63 | – | – | – | – | – | – | – | – | – | – | –
2 | CC(C)C[C@H](NC(=O)[C@H](C)NC(=O)[C@H](C)NC(=O)[C@@H](NC(=O)[C@H](CO)NC(=O)[C@H](CC(C)C)NC(=O)[C@H](CCC(=O)O)NC(=O)[C@H](CO)NC(=O)[C@H](C)NC(=O)CC[C@H](NC(=O)CCCCCCCCCCCCCCCCCCC(=O)O)C(=O)O)[C@@H](C)O)C(=O)NCC(=O)N[C@@H](Cc1cnc[nH]1)C(=O)N[C@@H](CC(C)C)C(=O)N[C@@H](CO)C(=O)N[C@@H](C)C(=O)N[C@@H](CCC(=O)O)C(=O)N[C@@H](CC(C)C)C(=O)N[C@@H](Cc1cnc[nH]1)C(=O)N[C@@H](CCC(=O)O)C(=O)N[C@@H](CC(C)C)C(=O)N[C@@H](C)C(=O)N[C@H](C(=O)N[C@@H](CC(C)C)C(=O)N1CCC[C@H]1C(=O)N[C@@H](Cc1cnc[nH]1)C(=O)N[C@H](C(=O)N[C@@H](CCC(=O)O)C(=O)N[C@H](C(=O)NCC(=O)N[C@@H](CO)C(=O)NCC(=O)N[C@@H](CO)C(=O)N1CCC[C@H]1C(N)=O)[C@@H](C)O)[C@@H](C)O)[C@@H](C)O ({C20 diacid-γGlu}-ASELSTAALGHLSAELHELATLPHTETGSGSP-NH2) | 7 | 3 | 26 | 12 | 123 | ≥ 200 | ≥ 200 | ≥ 200 | ≥ 200 | ≥ 200 | ≥ 200 | ≥ 200 | ≥ 200
3 | CC(C)C[C@H](NC(=O)CNC(=O)[C@H](CO)NC(=O)[C@H](C)NC(=O)[C@H](CCC(=O)O)NC(=O)CC[C@H](NC(=O)CCCCCCCCCCCCCCCCCCC(=O)O)C(=O)O)C(=O)N[C@@H](CO)C(=O)N[C@H](C(=O)N[C@@H](C)C(=O)N[C@@H](C)C(=O)N[C@@H](CC(C)C)C(=O)NCC(=O)N[C@@H](CCCNC(=N)N)C(=O)N[C@@H](CC(C)C)C(=O)N[C@@H](CO)C(=O)N[C@@H](CCC(N)=O)C(=O)N[C@@H](CCC(=O)O)C(=O)N[C@@H](CC(C)C)C(=O)N[C@@H](Cc1cnc[nH]1)C(=O)N[C@@H](CCC(=O)O)C(=O)N[C@@H](CC(C)C)C(=O)N[C@@H](CCC(N)=O)C(=O)N[C@H](C(=O)N[C@@H](Cc1ccc(O)cc1)C(=O)N1CCC[C@H]1C(=O)N[C@@H](CCCNC(=N)N)C(=O)N[C@H](C(=O)N[C@@H](CCC(=O)O)C(=O)N[C@H](C(=O)NCC(=O)N[C@@H](CO)C(=O)NCC(=O)N[C@H](C(=O)N[C@@H](Cc1ccc(O)cc1)C(N)=O)[C@@H](C)O)[C@@H](C)O)[C@@H](C)O)[C@@H](C)O)[C@@H](C)O ({C20 diacid-γGlu}-EASGLSTAALGRLSQELHELQTYPRTETGSGTY-NH2) | 23 | 10 | – | 23 | 92 | ≥ 200 | ≥ 200 | ≥ 200 | – | ≥ 200 | ≥ 200 | ≥ 200 | ≥ 200
